{"source": "patent US5777190A", "about": "(priority 1997, dated 1998)", "key": {"[1]": {"target": "ferredoxin NADP oxidoreductase (FNR, EC 1.18.1.2) from spinach (Spinacia oleracea, UniProt P00455)", "sequence (P00455 56-369)": "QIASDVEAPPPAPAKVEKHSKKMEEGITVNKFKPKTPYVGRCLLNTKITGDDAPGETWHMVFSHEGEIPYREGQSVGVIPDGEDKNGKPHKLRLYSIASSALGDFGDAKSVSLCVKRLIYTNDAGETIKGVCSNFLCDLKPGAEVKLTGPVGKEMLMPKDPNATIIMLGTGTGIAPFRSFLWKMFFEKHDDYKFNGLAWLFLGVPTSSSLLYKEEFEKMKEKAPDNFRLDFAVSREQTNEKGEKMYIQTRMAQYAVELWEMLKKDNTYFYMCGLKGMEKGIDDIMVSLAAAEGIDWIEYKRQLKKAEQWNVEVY"}, "rats": {"tested_on": "rats", "conditions": "rat, in vivo; cited from earlier work"}}, "data": [{"molecule": "O=[N+]([O-])c1ccccc1", "note": "[nitrobenzene]", "values": [{"measurement": "reduction by FNR under aerobic conditions", "setting": "[1]", "value": "not reduced"}, {"measurement": "stoichiometry of transformation by FNR", "setting": "[1]", "value": "One mole of PHA is formed for every mole of nitrobenzene"}, {"measurement": "reduction by FNR under nitrogen (product formed)", "setting": "[1]; pH 8.5", "value": "transformation of nitrobenzene to PHA by FNR"}, {"measurement": "LD50", "setting": "rats", "value": 640, "unit": "mg/kg"}]}]}
